Assay results taken from patent publication US10925283B2, “Microbiocidal phenylamidine derivatives” (SYNGENTA PARTICIPATIONS AG, priority 2016, dated 2021).

Columns and labels:
Assay type in all cases: in vivo
[1] = tested on: Blumeria graminis f. sp. tritici (Erysiphe graminis f. sp. tritici); assay: Blumeria graminis f. sp. tritici / wheat / leaf disc preventative (powdery mildew on wheat); conditions: foliar, wheat leaf segments cv. Kanzler, inoculated 1 day after application, assessed 6-8 days after application, read-out: control of Blumeria graminis f. sp. tritici (percent disease control compared to untreated)
Method in brief: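 Wheat cv. Kanzler leaf segments on agar were sprayed with formulated compound in water, then inoculated with powdery mildew 1 day after application. Incubation was at 20° C, 60% rh, 24 h dark then 12 h light/12 h dark. Percent disease control versus untreated was scored 6-8 days after application.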

Phakopsora pachyrhizi = Phakopsora pachyrhizi / soybean / preventative (soybean rust); conditions: foliar, soybean leaf disks, inoculated one day after application, assessed 12-14 days after application, read-out: control of Phakopsora pachyrhizi (percent disease control compared to untreated)
Method: Phakopsora pachyrhizi/Soybean/Preventative (Soybean Rust) Soybean leaf disks are placed on water agar in multiwell plates (24-well format) and sprayed with the formulated test compound diluted in water. One day after application leaf discs are inoculated by spraying a spore suspension on the lower leaf surface. After an incubation period in a climate cabinet of 24-36 hours in darkness at 20° C. and 75% rh leaf disc are kept at 20° C. with 12 h light/day and 75% rh. The activity of a compound is assessed as percent disease control compared to untreated when an appropriate level of disease damage appears in untreated check leaf disks (12-14 days after application).

[2] = tested on: Puccinia recondita f. sp. tritici; assay: Puccinia recondita f. sp. tritici / wheat / leaf disc curative (brown rust); conditions: foliar, wheat leaf segments cv. Kanzler, compound applied 1 day after inoculation, assessed 6-8 days after application, read-out: control of Puccinia recondita f. sp. tritici (percent disease control compared to untreated)
Method in brief: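 Curative test: leaf segments of wheat cv. Kanzler on agar were inoculated with spores and held dark at 19 °C, 75% rh; formulated compound in water was applied 1 day after inoculation. Segments were then kept at 19 °C, 75% rh under 12 h light/12 h dark, and percent disease control versus untreated was scored 6-8 days after application.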

[3] = tested on: Puccinia recondita f. sp. tritici; assay: Puccinia recondita f. sp. tritici / wheat / leaf disc preventative (brown rust); conditions: foliar, wheat leaf segments cv. Kanzler, inoculated 1 day after application, assessed 7-9 days after application, read-out: control of Puccinia recondita f. sp. tritici (percent disease control compared to untreated)
Method in brief: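 Leaf segments of wheat cv. Kanzler on agar were sprayed with diluted formulated compound and inoculated with spores 1 day later. Kept at 19° C, 75% rh, 12 h light/12 h dark. Percent disease control versus untreated assessed 7-9 days after application.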

Measured: pest or weed control at 200 ppm

CCN(C)/C=N/c1cc(OC)c(C(O)(CCOc2ccccc2)C(F)(F)F)cc1C (stereo not shown) [E.054, N-ethyl-N′-[4-[1-hydroxy-3-phenoxy-1-(trifluoromethyl)propyl]-5-methoxy-2-methyl-phenyl]-N-methyl-formamidine]
≥ 80%: all assays above

C#CCOCCC(O)(c1cc(C)c(/N=C/N(C)CC)cc1OC)C(F)(F)F (stereo not shown) [E.050, N-ethyl-N′-[4-[1-hydroxy-3-prop-2-ynoxy-1-(trifluoromethyl)propyl]-5-methoxy-2-methyl-phenyl]-N-methyl-formamidine]
≥ 80%: all assays above

CC#CCOCCC(O)(c1cc(C)c(/N=C/N(C)CC)cc1OC)C(F)(F)F (stereo not shown) [E.049, N′-[4-[3-but-2-ynoxy-1-hydroxy-1-(trifluoromethyl)propyl]-5-methoxy-2-methyl-phenyl]-N-ethyl-N-methyl-formamidine]
≥ 80%: all assays above

CCN(C)/C=N/c1cc(OC)c(C(O)(CCOCc2ccccc2)C(F)(F)F)cc1C (stereo not shown) [E.051, N′-[4-[3-benzyloxy-1-hydroxy-1-(trifluoromethyl)propyl]-5-methoxy-2-methyl-phenyl]-N-ethyl-N-methyl-formamidine]
≥ 80%: all assays above

CCCOCCC(O)(c1cc(C)c(/N=C/N(C)CC)cc1OC)C(F)(F)F (stereo not shown) [E.052, N-ethyl-N′-[4-[1-hydroxy-3-propoxy-1-(trifluoromethyl)propyl]-5-methoxy-2-methyl-phenyl]-N-methyl-formamidine]
≥ 80%: all assays above

CCN(C)/C=N/c1cc(OC)c(C(O)(COCC(C)C)C(F)(F)F)cc1C (stereo not shown) [E.046, N-ethyl-N′-[5-methoxy-2-methyl-4-[2,2,2-trifluoro-1-hydroxy-1-(isobutoxymethyl)ethyl]phenyl]-N-methyl-formamidine]
≥ 80%: all assays above

CCOC1CCC(C(O)(c2cc(C)c(/N=C/N(C)CC)cc2OC)C(F)(F)F)CC1 (stereo not shown) [E.080, N′-[4-[1-(4-ethoxycyclohexyl)-2,2,2-trifluoro-1-hydroxy-ethyl]-5-methoxy-2-methyl-phenyl]-N-ethyl-N-methyl-formamidine]
≥ 80%: all assays above

CCN(C)/C=N/c1cc(OC)c(C(O)(COC(C)c2ccccc2)C(F)(F)F)cc1C (stereo not shown) [E.028, N-ethyl-N′-[5-methoxy-2-methyl-4-[2,2,2-trifluoro-1-hydroxy-1-(1-phenylethoxymethyl)ethyl]phenyl]-N-methyl-formamidine]
≥ 80%: all assays above

CCN(C)/C=N/c1cc(OC)c(C(O)(C2CCC(OC(C)C)CC2)C(F)(F)F)cc1C (stereo not shown) [E.078, N-ethyl-N′-[5-methoxy-2-methyl-4-[2,2,2-trifluoro-1-hydroxy-1-(4-isopropoxycyclohexyl)ethyl]phenyl]-N-methyl-formamidine]
≥ 80%: all assays above

CCCCOCC(O)(c1cc(C)c(/N=C/N(C)CC)cc1OC)C(F)(F)F (stereo not shown) [E.013, N′-[4-[1-(butoxymethyl)-2,2,2-trifluoro-1-hydroxy-ethyl]-5-methoxy-2-methyl-phenyl]-N-ethyl-N-methyl-formamidine]
≥ 80%: all assays above

CCN(C)/C=N/c1cc(OC)c(C(O)(CCOc2ccc(F)cc2)C(F)(F)F)cc1C (stereo not shown) [E.053, N-ethyl-N′-[4-[3-(4-fluorophenoxy)-1-hydroxy-1-(trifluoromethyl)propyl]-5-methoxy-2-methyl-phenyl]-N-methyl-formamidine]
≥ 80%: all assays above

C#CCOCC(O)(c1cc(C)c(/N=C/N(C)CC)cc1OC)C(F)(F)F (stereo not shown) [E.041, N-ethyl-N′-[5-methoxy-2-methyl-4-[2,2,2-trifluoro-1-hydroxy-1-(prop-2-ynoxymethyl)ethyl]phenyl]-N-methyl-formamidine]
≥ 80%: all assays above

CCN(C)/C=N/c1cc(OC)c(C(O)(COCc2ccc(C)cc2)C(F)(F)F)cc1C (stereo not shown) [E.027, N-ethyl-N′-[5-methoxy-2-methyl-4-[2,2,2-trifluoro-1-hydroxy-1-(p-tolylmethoxymethyl)ethyl]phenyl]-N-methyl-formamidine]
≥ 80%: all assays above

CCO/N=C/CC(O)(c1cc(C)c(/N=C/N(C)CC)cc1OC)C(F)(F)F (stereo not shown) [E.056, N′-[4-[(3E)-3-ethoxyimino-1-hydroxy-1-(trifluoromethyl)propyl]-5-methoxy-2-methyl-phenyl]-N-ethyl-N-methyl-formamidine]
≥ 80%: all assays above

CCN(C)/C=N/c1cc(OC)c(C(O)(C2CCOCC2)C(F)(F)F)cc1C (stereo not shown) [E.055, N-ethyl-N′-[5-methoxy-2-methyl-4-(2,2,2-trifluoro-1-hydroxy-1-tetrahydropyran-4-yl-ethyl)phenyl]-N-methyl-formamidine]
≥ 80%: all assays above

CCN(C)/C=N/c1cc(OC)c(C(O)(C/C(C)=N/OCc2ccccc2)C(F)(F)F)cc1C (stereo not shown) [E.081]
≥ 80%: all assays above

CCN(C)/C=N/c1cc(OC)c(C(O)(CSCc2ccccc2)C(F)(F)F)cc1C (stereo not shown) [E.069, N′-[4-[1-(benzylsulfanylmethyl)-2,2,2-trifluoro-1-hydroxy-ethyl]-5-methoxy-2-methyl-phenyl]-N-ethyl-N-methyl-formamidine]
≥ 80%: all assays above

CCN(C)/C=N/c1cc(OC)c(C(O)(CON=C2CCCCC2)C(F)(F)F)cc1C (stereo not shown) [E.037, N′-[4-[1-[(cyclohexylideneamino)oxymethyl]-2,2,2-trifluoro-1-hydroxy-ethyl]-5-methoxy-2-methyl-phenyl]-N-ethyl-N-methyl-formamidine]
≥ 80%: all assays above

CCOCC(O)(c1cc(C)c(/N=C/N(C)CC)cc1OC)C(F)(F)F (stereo not shown) [E.002, N′-[4-[1-(ethoxymethyl)-2,2,2-trifluoro-1-hydroxy-ethyl]-5-methoxy-2-methyl-phenyl]-N-ethyl-N-methyl-formamidine]
≥ 80%: all assays above
